Reference: ChEMBL document CHEMBL3044703, “Safening efficacy of halogenated acetals, ketals and amides and relationship between the structure and effect on glutathione and glutathione S-transferases in maize” (2007)
The source made the active and inactive calls. The calls are words filed in the database; no cut-off is given here.

How the values were obtained:
[1] = tested on: Zea mays; assay: Decrease in GST activity in Zea mays (maize) root at 50 uM applied to seeds incubated for 5 days by CDNB-based spectrophotometric analysis relative to control; type: functional, organism-based
[2] = tested on: Zea mays; assay: Increase in GSH content in Zea mays (maize) shoot at 50 uM applied to seeds incubated for 5 days by DNTB-based spectrophotometric analysis relative to control; type: functional
[3] = tested on: Zea mays; assay: Safening activity against acetochlor-induced phytotoxicity against Zea mays (maize) assessed as increase in shoot length at 50 uM applied pre-emergence measured 14 days after treatment relative to acetochlor-treated control; type: functional
[4] = tested on: Zea mays; assay: Effect on GSH content in Zea mays (maize) shoot at 50 uM applied to seeds incubated for 5 days by DNTB-based spectrophotometric analysis relative to control; type: functional, organism-based
[5] = tested on: Zea mays; assay: Increase in GSH content in Zea mays (maize) root at 50 uM applied to seeds incubated for 5 days by DNTB-based spectrophotometric analysis relative to control; type: functional
[6] = tested on: Zea mays; assay: Increase in GST activity in Zea mays (maize) shoot at 50 uM applied to seeds incubated for 5 days by CDNB-based spectrophotometric analysis relative to control; type: functional, organism-based
[7] = tested on: Zea mays; assay: Effect on GST activity in Zea mays (maize) shoot at 50 uM applied to seeds incubated for 5 days by CDNB-based spectrophotometric analysis relative to control; type: functional, organism-based
[8] = tested on: Zea mays; assay: Increase in GST activity in Zea mays (maize) root at 50 uM applied to seeds incubated for 5 days by [14C]acetochlor-based liquid scintillation assay relative to control; type: functional
[9] = tested on: Zea mays; assay: Increase in GST activity in Zea mays (maize) shoot at 50 uM applied to seeds incubated for 5 days by [14C]acetochlor-based liquid scintillation assay relative to control; type: functional
[10] = tested on: Zea mays; assay: Decrease in GSH content in Zea mays (maize) root at 50 uM applied to seeds incubated for 5 days by DNTB-based spectrophotometric analysis relative to control; type: functional, organism-based
[11] = tested on: Zea mays; assay: Increase in GST activity in Zea mays (maize) root at 50 uM applied to seeds incubated for 5 days by CDNB-based spectrophotometric analysis relative to control; type: functional
[12] = tested on: Zea mays; assay: Effect on GST activity in Zea mays (maize) root at 50 uM applied to seeds incubated for 5 days by [14C]acetochlor-based liquid scintillation assay relative to control; type: functional, organism-based

| Compound | Activity [2] | Activity [3] | Activity [4] | also measured |
| --- | --- | --- | --- | --- |
| CCOC(CCl)OCC [MONOCHLOROACETAL] | Active | 24% |  | Activity [1]: Active |
| CCCOC(C)(OCCC)C(Cl)Cl | inactive | 63% | inactive | Activity [5]: inactive |
| CC1(C(Cl)Cl)OCCCCCCO1 | Active | Active | inactive | Activity [6]: Active |
| C=CCNC(=O)CCl [N-ALLYL-2-CHLOROACETAMIDE] |  | 48% |  | Activity [7]: inactive; fold change (FC) [2]: 2.25; fold change (FC) [5]: 2.25 |
| C=CCN(CC=C)C(=O)CBr |  |  |  | Activity [8]: Active; Activity [7]: inactive; Activity [9]: Active |
| C=CCN(CC=C)C(=O)C(Cl)Cl [DICHLORMID] |  | 81% |  | Activity [7]: inactive; fold change (FC) [2]: 1.78; fold change (FC) [5]: 1.65 |
| CC(C)COC(OCC(C)C)C(Cl)Cl |  | 24% | inactive |  |
| CCOCN(C(=O)CCl)c1c(C)cccc1CC |  |  |  | Activity [8]: Active; Activity [9]: Active |
| ClC(Cl)C1(c2ccccc2)OCCO1 |  | Active | inactive | Activity [6]: Active; fold change (FC) [2]: >2; fold change (FC) [5]: >2 |
| CC1(C)COC(C(Cl)Cl)OC1 |  | 24% | inactive | Activity [10]: Active |
| CCCCOC(C)(OCCCC)C(Cl)Cl |  |  | inactive |  |
| CC(C)COC(C)(OCC(C)C)C(Cl)Cl |  |  | inactive | fold change (FC) [9]: 4.72 |
| ClC(Cl)C1OCCCCO1 |  | 24% | inactive | Activity [10]: Active |
| C=CCN(CC=C)C(=O)CCl |  |  |  | Activity [8]: Active; Activity [7]: inactive; Activity [9]: Active |
| CCOC(CBr)OCC [BROMOACETAL] | Active | 60% |  | Activity [1]: Active; fold change (FC) [9]: 3.76 |
| ClC(Cl)C1OCCCCCCO1 |  | 24% | inactive | fold change (FC) [11]: 4 |
| ClC(Cl)C1OCCCCCO1 |  | 24% | inactive | Activity [10]: Active; fold change (FC) [11]: 2 |
| CCCCOC(OCCCC)C(Cl)Cl |  | 24% | inactive |  |
| CC1(C(Cl)Cl)OCCCO1 | Active | 68% | inactive | Activity [6]: Active |
| CCOC(OCC)C(Cl)Cl |  | 24% | inactive | Activity [1]: Active; Activity [6]: Active |
| CC1(C)COC(C)(C(Cl)Cl)OC1 | Active | Active | inactive | Activity [6]: Active |
| CC1(C(Cl)Cl)OCCCCO1 | Active | 70% | inactive | Activity [12]: inactive; Activity [6]: Active |
| CC1(C(Cl)Cl)OCCO1 | Active | 64% | inactive | Activity [6]: Active; fold change (FC) [8]: 3.64; fold change (FC) [9]: 3.93 |
| CCCOC(OCCC)C(Cl)Cl |  | 24% | inactive |  |
| ClC(Cl)C1OCCO1 |  | 24% | inactive | Activity [10]: Active |
| CCOC(C)(OCC)C(Cl)Cl | inactive | 62% | inactive | Activity [5]: inactive |
| CC1(C(Cl)Cl)OCCCCCO1 | Active | Active | inactive | Activity [6]: Active |
| ClC(Cl)C1OCCCO1 |  | 24% | inactive | Activity [10]: Active |
